{"source": "patent US7125911B2", "about": "“Autonomic nerve regulating agent” (Kao Corporation, priority 2000, dated 2006)", "key": {"[1]": {"system": "insomniac women in their fifties", "assay": "Sleep in a room with furnishings and bedding coated with cedrol, actigram assessment (Example 7)", "type": "in vivo, human", "conditions": "furnishings and bedding coated with cedrol 1.5 μg/cm^2, 15th to 21st days, vs control week; p<0.01", "procedure": "The subjects were twenty insomniac women in their fifties, while sleep was assessed from 3 hours before bed until wakening for 4 weeks in a room (sleeping room) at a temperature of 23° C. and a humidity of 50%. The first week served as a control. For the last 3 weeks, the test was conducted by replacing the curtains, wall paper, flooring, pillows, sheets, and bedding with those which had been coated with cedral (1.5 μg/cm^2).\nThe subjects ware actigrams for 4 continuous weeks on the opposite of their leading arm to allow assessment of the sleeping efficiency and intermittent awakening. Analyzed data for the cedrol coatings were from the 15th to 21st days following application.\nStatistical analysis of the measurement results was the same as in Example 5."}, "[2]": {"system": "women in their twenties suffering from poor sleep", "assay": "Sleep monitoring with cedrol vaporized in the room from bedtime until waking (Example 3)", "type": "in vivo, human", "conditions": "significance 5%", "procedure": "The subjects were ten women in their twenties suffering from poor sleep. ECG (chest V5 lead), brain waves (C3, O1 in the international 10–20 method), respiration (impedance method: abdomen and chest), superficial electromyogram (bipolar lead of left and right mentalis muscles), and ocular movement (bipolar lead without horizontally linking left and right eye-sockets) were monitored from the time the subjects went to bed until they woke in a 40 m^2 room. The cedrol was administered by placing Petri dishes filled with cedrol on 95° C. hot plates so that approximately 100 mg was vaporized per hour (about 1 ppb/hr), from the time subjects went to bed until they woke. Measurements were taken for 7 days. No administration took place on the first two days, in order to allow subjects to become acclimated to the measuring instruments and environment (control). On the third day, administration was managed without anything placed on the hot plates (placebo). After 3 days, cedrol was administered on the 7th day.\nThe subjects were interviewed about their condition on waking using a questionnaire based on POMS (profile of mood states) to assess mood. The changes in the parameters measured during the administration of cedrol and placebo treatment were compared.\nAwakening and sleep stages were determined in accordance with international standards for determining sleep stages (Sleep Brain Wave Atlas, pp. 3–9, Ishiyaku Shuppan KK, published September, 1971, the relevant portions thereof which describe sleep analysis and standards are incorporated herein by reference). Frequency analysis of R—R interval fluctuations and statistical analysis of the measurement results were done in the same manner as in Example 1."}, "[3]": {"system": "women in their twenties complaining of fatigue (sympathetic overactivity)", "assay": "Inhalation of cedrol for 30 seconds with ECG, blood pressure and respiration monitoring (Example 1)", "type": "in vivo, human", "conditions": "after vs before inhalation, 10 wt % in dipropylene glycol, significance 5%", "procedure": "The subjects were ten women in their twenties complaining of fatigue (sympathetic overactivity), who were asked to inhale, for 30 seconds, cedrol dissolved in dipropylene glycol (10 wt % concentration), while ECG at rest (chest V5 lead), blood pressure (tonometry), and respiration (pulmonary volume instantaneously measured by respiratory rate sensor) were monitored. The changes in parameters before and after measurement were compared. Frequency analysis of R—R interval fluctuations was performed for low frequency components integrating amplitudes 0.02 to 0.12 Hz (sum of low frequency: Lsum) and high frequency components integrating amplitudes 0.12 to 2.00 Hz (sum of high frequency: Hsum) using the rapid Fourier transform. As used here, the Hsum is an indicator of parasympathetic nervous activity, and the Lsum/Hsum is an indicator of sympathetic nervous activity.\nThe measurement results were statistically analyzed by Welch's t-test or Student's t-test based on the F test."}, "[4]": {"assay": "Vapor pressure of purified cedrol by static method and gas flow method", "type": "physicochemical", "conditions": "ambient temperature (unheated)", "procedure": "The vapor pressure of purified cedrol (molecular weight 222 g·mol^−1) used in the following examples was determined by a static method and a gas flow method (temperature: 22, 50, and 75° C. for solids; 100 and 125° C. for liquids).\nIn the static method, samples were taken from hermetically sealed containers, a constant temperature was established, and the equilibrium vapor pressure at that temperature was directly measured using a pressure gauge (OECD Test Guidelines 104: Static Measurement of Vapor Pressure).\nIn the gas flow method, carrier gas (nitrogen gas) was allowed to flow so as to come into contact with a solid or liquid sample at a certain temperature to saturate the sample vapor, and the vapor density (vaporization quantity/volume) was measured so as to determine the vapor pressure hypothetically in accordance with ideal gas principles. The vapor density herein referred to is calculated from the sample vaporization rate (rate of loss) determined using an electrical balance, and the carrier gas flow rate determined using a flow rate gauge. However, since the sample vapor saturation is usually incomplete, the vapor density level is dependent on flow rate, so the vapor density was measured at varying flow rates for extrapolation to a zero flow rate to determine the saturated vapor density. […]"}, "[5]": {"system": "insomniac women in their twenties (parasympathetic predominance to excess)", "assay": "Inhalation of cedrol for 30 seconds with ECG, blood pressure and respiration monitoring (Example 2)", "type": "in vivo, human", "conditions": "after vs before inhalation, insomniac subjects", "source_text": "The subjects were ten insomniac women in their twenties (under considerable pressure to get to sleep, with parasympathetic predominance to excess), who were asked to inhale, for 30 seconds, cedrol dissolved in dipropylene glycol (10 wt % concentration), while ECG at rest (chest V5 lead), blood pressure (tonometry), and respiration (pulmonary volume instantaneously measured by respiratory rate sensor), and skin blood flow of forehead (measured by laser Doppler methods) were monitored. The changes in parameters before and after measurement were compared. Frequency analysis of R—R interval fluctuations and statistical analysis of the measurement results were done in the same manner as in Example 1."}, "[6]": {"conditions": "7th day (cedrol) vs before administration and 3rd day (placebo treatment)"}, "[7]": {"conditions": "cedrol approximately 100 mg vaporized per hour vs placebo treatment"}, "[8]": {"conditions": "within physiologically normal range, significance 5%"}}, "data": [{"smiles": "C[C@@H]1CC[C@H]2C(C)(C)[C@H]3C[C@@]12CC[C@@]3(C)O", "note": "[cedrol]", "values": [{"measurement": "intermittent awakening", "setting": "[1]", "result": "meaningfully fewer"}, {"measurement": "sleeping efficiency", "setting": "[1]", "result": "meaningfully better"}, {"measurement": "POMS fatigue", "setting": "[2]; [6]", "result": "meaningful (5%) improvement"}, {"measurement": "POMS tension", "setting": "[2]; [6]", "result": "meaningful (5%) improvement"}, {"measurement": "Hsum during non-REM sleep", "setting": "[2]; cedrol approximately 100 mg vaporized per hour (about 1 ppb/hr) vs placebo treatment", "result": "meaningfully increased"}, {"measurement": "cumulative incidence of stages 3 and 4 of sleep", "setting": "[2]; [7]", "result": "meaningfully greater"}, {"measurement": "respiratory rate (RR) during non-REM sleep", "setting": "[2]; [7]", "result": "meaningfully lower"}, {"measurement": "ECG R-R interval", "setting": "[3]", "result": "meaningfully longer"}, {"measurement": "Hsum (parasympathetic nervous activity indicator)", "setting": "[3]", "result": "meaningfully greater"}, {"measurement": "Lsum/Hsum (sympathetic nervous activity indicator)", "setting": "[3]", "result": "meaningfully lower"}, {"measurement": "diastolic blood pressure (DBP)", "setting": "[3]", "result": "meaningfully lower"}, {"measurement": "respiratory rate (RR)", "setting": "[3]", "result": "meaningfully lower"}, {"measurement": "systolic blood pressure (SBP)", "setting": "[3]", "result": "meaningfully lower"}, {"measurement": "vapor pressure (vaporizability)", "setting": "[4]", "result": "can be vaporized at ambient temperature"}, {"measurement": "ECG R-R interval", "setting": "[5]", "result": "no meaningful change"}, {"measurement": "Hsum", "setting": "[5]", "result": "tended to be lower"}, {"measurement": "Lsum/Hsum", "setting": "[5]", "result": "tended to be higher"}, {"measurement": "respiratory rate (RR)", "setting": "[5]", "result": "no meaningful difference"}, {"measurement": "diastolic blood pressure (DBP)", "setting": "[5]; [8]", "result": "meaningfully higher"}, {"measurement": "systolic blood pressure (SBP)", "setting": "[5]; [8]", "result": "meaningfully higher"}]}]}
